Experiment: Theaflavins feeding model (optical density)
Type: physicochemical
Experimental: A 3 mg/mL aqueous solution of theaflavins was prepared at 80 degrees Celsius. 0.625 mg/mL aqueous solutions of whey protein isolate and iota carrageenan were prepared and all three solutions combined to yield a solution with 1.5 mg/mL theaflavins, 0.156 mg/mL whey protein isolate and 0.156 mg/mL iota carrageenan. The following feeding programme was used with the 3 mg/mL aqueous solution of theaflavins being either at ambient temperature (reference “Procedure B”) or at 80 degrees Celsius (reference “Procedure A”) when combined with the ambient temperature 0.625 mg/mL aqueous solutions of whey protein isolate and iota carrageenan:
TF+WPI/IC: 25 mL whey protein isolate solution and 25 mL iota carrageenan solution are premixed and added to 50 mL theaflavins solution. TF+IC: 25 mL iota carrageenan solution is added to 50 mL of theaflavins solution and 25 mL of deionised water added. TF+WPI: 25 mL whey protein isolate solution is added to 50 mL of theaflavins solution and 25 mL of deionised water added. TFWPI+IC: 25 mL whey protein isolate solution is added to 50 mL theaflavins solution, and then 25 mL iota carrageenan solution is added after 10 minutes. […]
All the samples were stored at 4 degrees Celsius for 24 hours in order to equilibrate the tea creaming process before measurement of turbidity at 600 nm with a Safire2™ microplate reader (Tecan Group Ltd.).

Effect on solubility of theaflavin: decreases the solubility of theaflavin
Substance: Iota carrageenan
